According to patent publication US20250177566A1, “USE OF CHEMICAL EPIGENETIC MODIFIERS TO MODULATE GENE EXPRESSION” (The University of North Carolina at Chapel Hill, priority 2022, published 2025):
Read-outs that look alike come from different tables or passages of the source.

Legend:
[1] = tested on: TRE3G-GFP reporter gene; experiment: TRE3G-GFP reporter gene activation in HCT116, dCas9 + MS2-FKBP*x2 (F36V) system, flow cytometry; format: cell-based, human; parameters: fold change, GFP: reference not given here; conditions: for fold change, GFP: FIG. 5C, NT gRNA, 48 hrs
[2] = tested on: CXCR4; experiment: CXCR4 mRNA activation in HCT116 stably expressing dCas9 and MS2-FKBPx2 (WT-FKBP), qRT-PCR; format: cell-based, human; conditions: FIG. 6, WT FKBP system, 48 hrs
[3] = tested on: TRE3G-GFP reporter gene; conditions: WT FKBP (MS2-FKBPx2), 48 hrs
Method: HCT116 cells were transfected with TRE3G-GFP, dCas9, MS2-FKPB*x2, and TRE3G gRNA or NT gRNA. After 48 hrs of 10 nM SLF*-CEMa treatment, flow cytometry was performed and mean fluorescent value was collected. […] TRE3G-GFP, dCas9, MS2-FKBP*2, TRE3G gRNA or NT gRNA were transfected into HCT116 cells. The media was changed to media with 5 nM CEM207 together with 0 nM, 50 nM, 500 nM or 5000 nM of AP1867, respectively. After 48 hrs chemical exposure, flow cytometry was performed and the mean fluorescent value was measured in each group of cells. […] FIGS. 5D and 5E are dose curves of CEMa molecules activating the GFP reporter gene in HCT116 cells using WT FKBP and dCas9 as DNA binding module. HCT116 cells were transfected with dCas9, MS2-FKBPx2, TRE3G-GFP constructs, along with TRE3G gRNA or NT gRNA. Cells were treated with different concentrations of CEMa molecules for 48 hrs before flow cytometry was conducted. […] Error bars represent the standard deviation.
To better understand the activity of SLF*-CEMa in the WT FKBP-based GFP reporter assay, a similar dose-response assay was conducted in HCT116 cells transfected with dCas9 and MS2-FKBPx2 (FIGS. 1D and 1E).
Flow cytometry. All flow cytometry experiments were performed with Attune Nxt as previously described. […] Significance was determined by Student's t-test.

[4] = tested on: CXCR4; experiment: CXCR4 mRNA activation in HCT116 stably expressing dCas9 and MS2-FKBP*x2, qRT-PCR; format: cell-based, human
Summary of the method: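 HCT116 cells stably expressing dCas9 and MS2-FKBP*x2 with CXCR4 gRNA were treated with CEMs (screen at 5 nM; 1–50 nM range). CXCR4 mRNA measured by one-step qRT-PCR after 48 h, or at 12–96 h in time course. Reversibility tested by washout after 24 h, optionally with 20 μM AP1867.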

With `COc1ccc2c(c1)C(c1ccc(Cl)cc1)=N[C@@H](CC(=O)NCc1cn(CCOCCOCCOCCNC(=O)CCSCCC[C@@H]3/C=C(\C)C[C@H](C)C[C@H](OC)[C@H]4O[C@@](O)(C(=O)C(=O)N5CCCC[C@H]5C(=O)O[C@H](/C(C)=C/[C@@H]5CC[C@@H](O)[C@H](OC)C5)[C@H](C)[C@@H](O)CC3=O)[C@H](C)C[C@@H]4OC)nn1)c1nnc(C)n1-2` [CEM87, reference compound] the “concentration at which significant GFP activation was first achieved” value ([1]; FIG. 1E, FKBP* system, TRE3G gRNA, 48 hours) was 50 nM, the “fold change, GFP (Treated vs Non-Treated)” value ([1]; FIG. 1E, TRE3G gRNA, 0.25 nM, 48 hours) was 1.1 fold and the “fold change, GFP (Treated vs Non-Treated)” value ([1]; FIG. 1E, TRE3G gRNA, 0.5 nM, 48 hours) was 1.1 fold. The “fold change, GFP (Treated vs Non-Treated)” value ([1]; FIG. 1E, TRE3G gRNA, 0.75 nM, 48 hours) was 1.1 fold, the “fold change, GFP (Treated vs Non-Treated)” value ([1]; FIG. 1E, TRE3G gRNA, 1 nM, 48 hours) was 1.1 fold and the “fold change, GFP (Treated vs Non-Treated)” value ([1]; FIG. 1E, TRE3G gRNA, 2.5 nM, 48 hours) was 1.2 fold. For the same compound, the “fold change, GFP (Treated vs Non-Treated)” value ([1]; FIG. 1E, TRE3G gRNA, 5 nM, 48 hours) was 1.1 fold, the “fold change, GFP (Treated vs Non-Treated)” value ([1]; FIG. 1E, TRE3G gRNA, 7.5 nM, 48 hours) was 1.1 fold and the “fold change, GFP (Treated vs Non-Treated)” value ([1]; FIG. 1E, TRE3G gRNA, 10 nM, 48 hours) was 1.2 fold. The “fold change, GFP (Treated vs Non-Treated)” value ([1]; FIG. 1E, TRE3G gRNA, 25 nM, 48 hours) was 1.6 fold, the “fold change, GFP (Treated vs Non-Treated)” value ([1]; FIG. 1E, TRE3G gRNA, 50 nM, 48 hours) was 5.2 fold and the “fold change, GFP (Treated vs Non-Treated)” value ([1]; FIG. 1E, TRE3G gRNA, 75 nM, 48 hours) was 7.8 fold. The “fold change, GFP (Treated vs Non-Treated)” value ([1]; FIG. 1E, TRE3G gRNA, 100 nM, 48 hours) was 9.7 fold, the “fold change, GFP” value ([1]; 0.25 nM) was 1.1 fold and the “fold change, GFP” value ([1]; 0.5 nM) was 1.1 fold. For the same compound, the “fold change, GFP” value ([1]; 0.75 nM) was 1.0 fold, the “fold change, GFP” value ([1]; 1 nM) was 1.0 fold and the “fold change, GFP” value ([1]; 2.5 nM) was 1.1 fold. For the same compound, the “fold change, GFP” value ([1]; 5 nM) was 1.0 fold, the “fold change, GFP” value ([1]; 7.5 nM) was 1.0 fold and the “fold change, GFP” value ([1]; 10 nM) was 1.0 fold. The “fold change, GFP” value ([1]; 25 nM) was 1.0 fold, the “fold change, GFP” value ([1]; 50 nM) was 1.0 fold and the “fold change, GFP” value ([1]; 75 nM) was 1.0 fold. The “fold change, GFP” value ([1]; 100 nM) was 1.0 fold, the “fold change, CXCR4 mRNA (CXCR4 gRNA vs NT gRNA)” value ([2]; 25 nM) was 21.5 fold and the “fold change, CXCR4 mRNA (CXCR4 gRNA vs NT gRNA)” value ([2]; 50 nM) was 16.5 fold. For the same compound, the “fold change, CXCR4 mRNA (CXCR4 gRNA vs NT gRNA)” value ([2]; 200 nM) was 19.0 fold, the “fold change, GFP (Treated vs Non-Treated)” value ([3]; FIG. 5D, 10 nM) was 22.5 fold and the “fold change, GFP (Treated vs Non-Treated)” value ([3]; FIG. 5D, 25 nM) was 23.1 fold. The “fold change, GFP (Treated vs Non-Treated)” value ([3]; FIG. 5D, 50 nM) was 22.1 fold, the “fold change, GFP (Treated vs Non-Treated)” value ([3]; FIG. 5D, 100 nM) was 22.0 fold and the “fold change, GFP (Treated vs Non-Treated)” value ([3]; FIG. 5D, 200 nM) was 18.7 fold. The “fold change, GFP (Treated vs Non-Treated)” value ([3]; FIG. 5D, 400 nM) was 18.3 fold, the “fold change, GFP (Treated vs Non-Treated)” value ([3]; FIG. 5E, 10 nM) was 1.0 fold and the “fold change, GFP (Treated vs Non-Treated)” value ([3]; FIG. 5E, 25 nM) was 1.1 fold. The “fold change, GFP (Treated vs Non-Treated)” value ([3]; FIG. 5E, 50 nM) was 1.1 fold, the “fold change, GFP (Treated vs Non-Treated)” value ([3]; FIG. 5E, 100 nM) was 1.2 fold and the “fold change, GFP (Treated vs Non-Treated)” value ([3]; FIG. 5E, 200 nM) was 1.1 fold. The “fold change, GFP (Treated vs Non-Treated)” value ([3]; FIG. 5E, 400 nM) was 1.2 fold, the “fold change, CXCR4 mRNA (Treated vs Non-Treated)” value ([4]; FIG. 2C, 5 nM, 48 hrs) was 1.5 fold and the “fold change, CXCR4 mRNA (CEM Treated vs Non-Treated)” value ([4]; FIG. 2D, CXCR4 gRNA, 1 nM, 48 hrs) was 1.16 fold. For the same compound, the “fold change, CXCR4 mRNA (CEM Treated vs Non-Treated)” value ([4]; FIG. 2D, CXCR4 gRNA, 5 nM, 48 hrs) was 1.03 fold, the “fold change, CXCR4 mRNA (CEM Treated vs Non-Treated)” value ([4]; FIG. 2D, CXCR4 gRNA, 25 nM, 48 hrs) was 1.19 fold and the “fold change, CXCR4 mRNA (CEM Treated vs Non-Treated)” value ([4]; FIG. 2D, CXCR4 gRNA, 50 nM, 48 hrs) was 1.53 fold. For the same compound, the “fold change, CXCR4 mRNA (CEM Treated vs Non-Treated)” value ([4]; FIG. 2D, NT gRNA, 1 nM, 48 hrs) was 0.85 fold, the “fold change, CXCR4 mRNA (CEM Treated vs Non-Treated)” value ([4]; FIG. 2D, NT gRNA, 5 nM, 48 hrs) was 0.81 fold and the “fold change, CXCR4 mRNA (CEM Treated vs Non-Treated)” value ([4]; FIG. 2D, NT gRNA, 25 nM, 48 hrs) was 0.91 fold. The “fold change, CXCR4 mRNA (CEM Treated vs Non-Treated)” value ([4]; FIG. 2D, NT gRNA, 50 nM, 48 hrs) was 1.18 fold and the “activation of CXCR4 mRNA expression” value ([4]; FIG. 2D, all concentrations tested (1-50 nM), 48 hours) was “no significant activation”.
